From ChEMBL document CHEMBL1140165, “Rotationally constrained 2,4-diamino-5,6-disubstituted pyrimidines: a new class of histamine H4 receptor antagonists with improved druglikeness and in vivo efficacy in pain and inflammation models” (J Med Chem, 2008) come the findings set out here.

For one series, the system named is BMMC. As to the kind of experiment: Blockade of histamine-induced morphological changes in BALB/c mouse BMMC by flow cytometry. The series is classed as functional, cell-based.
The test system of series [1] is Mus musculus. As to the kind of experiment: Inhibition of clobenpropit-induced itching in ip dosed CD1/ICR mouse assessed as blockade of scratching in hind paw for 25 mins pretreated 30 mins before clobenpropit challenge. The series is classed as functional.
A short description of series [2]: Half life in mouse at 2.5 mg/kg, iv. It counts as ADME, organism-based. The arrangement: dose 2.5 mg/kg, route intravenous. Conditions: in vivo.
Series [3] is described as follows: Protein binding in human. The series is classed as ADME, organism-based. The note with it: in vivo, read-out: PB (converted).
Series [4] in a line: Selectivity ratio of Ki for human histamine H4 receptor to Ki for histamine H2 receptor.
Series [5] in a line: Blood clearance in rat at 10 mg/kg, iv. The series is classed as ADME, organism-based. Conditions: whole blood. The arrangement: dose 10 mg/kg, route intravenous.
For another series, the target named is Cytochrome P450 2C9 (Homo sapiens, UniProt P11712). As to the kind of experiment: Inhibition of CYP2C9 upto 10 uM. The series is classed as ADME.
The nature of series [6]: Fractional bioavailability in rat at 10 mg/kg, iv and 10 mg/kg, po. It counts as ADME, organism-based. Conditions: in vivo.
Series [7] can be described thus: Terminal volume of distribution in rat at 10 mg/kg, iv. The series is classed as ADME, organism-based. Set-up: dose 10 mg/kg, route intravenous. Conditions: in vivo, read-out: Vbeta.
Series [8] can be described thus: Selectivity ratio of Ki for human histamine H4 receptor to Ki for adrenergic alpha1 receptor.
Series [9] can be described thus: Half life in rat at 10 mg/kg, iv. It counts as ADME, organism-based. The arrangement: dose 10 mg/kg, route intravenous. The note with it: in vivo.
Series [10] deals with Mus musculus. As to the kind of experiment: Antiinflammatory activity against ip dosed BALB/c mouse assessed as inhibition of zymosan-induced peritonitis after 2 hrs pretreated 30 mins before zymosan challenge. It counts as functional.
Series [11] is described as follows: Metabolic stability in mouse liver microsomes. It counts as ADME, Microsome. For orientation: Liver microsomes are a subcellular fraction often used to study metabolism.
Series [12] in a line: Selectivity ratio of Ki for human histamine H4 receptor to Ki for histamine H1 receptor.
The target of another series is Cytochrome P450 3A4 (Homo sapiens, UniProt P08684). As to the kind of experiment: Inhibition of CYP3A4 upto 10 uM. The series is classed as ADME.
The nature of series [13]: Selectivity ratio of Ki for human histamine H4 receptor to Ki for 5HT1A receptor.
The nature of series [14]: Selectivity ratio of Ki for human histamine H4 receptor to Ki for dopamine D2 receptor.
In a further series the test system is Rattus norvegicus. As to the kind of experiment: Antinociceptive efficacy in ip dosed spinal nerve ligated Sprague-Dawley rat assessed as reduction of neuropathic pain in paw. The series is classed as functional.
The nature of series [15]: Selectivity ratio of Ki for human histamine H4 receptor to Ki for 5HT1D receptor.
Series [16] is described as follows: Selectivity ratio of Ki for human histamine H4 receptor to Ki for 5HT2A receptor.
Series [17] in a line: Ratio of drug level in brain to plasma in rat at 10 mg/kg, iv after 30 mins. The series is classed as ADME, organism-based. Set-up: dose 10 mg/kg, route intravenous.
In series [18] the target is Histamine H4 receptor (Rattus norvegicus) (UniProt Q91ZY1). As to the kind of experiment: Antagonist activity at rat histamine H4 receptor expressed in HEK293 cells assessed as inhibition of histamine-induced intracellular calcium elevation by FLIPR assay relative to histamine. It counts as functional, cell-based.
A further series is filed under the species Homo sapiens. As to the kind of experiment: Selectivity ratio of Ki for human histamine H4 receptor to Ki for human histamine H3 receptor.
The next series deals with Cytochrome P450 2D6 (Homo sapiens, UniProt P10635). As to the kind of experiment: Inhibition of CYP2D6 upto 10 uM. It counts as ADME.
A short description of series [19]: Protein binding in rat. It counts as ADME, organism-based. Conditions: in vivo, read-out: PB (converted).
The test system of series [20] is Liver microsomes. As to the kind of experiment: Metabolic stability in human liver microsomes. It counts as ADME, Microsome.
Series [21] has as its system Liver microsomes. As to the kind of experiment: Metabolic stability in rat liver microsomes. The series is classed as ADME, Microsome.
Series [22] deals with Histamine H4 receptor (Mus musculus) (UniProt Q91ZY2). As to the kind of experiment: Antagonist activity at mouse histamine H4 receptor expressed in HEK293 cells assessed as inhibition of histamine-induced intracellular calcium elevation by FLIPR assay relative to histamine. The series is classed as functional, cell-based. For orientation: Calcium assays in cells follow changes in intracellular calcium, usually with a dye or a luminescent sensor.

In a further series the target is Histamine H4 receptor (Homo sapiens, UniProt Q9H3N8). The note with it: HEK293.

Active and inactive are the calls of the source. The calls are words filed in the database; no cut-off is given here. A value given as a limit tells only on which side of the number the result lay.

Sequence of Cytochrome P450 2D6 (P10635 whole entry): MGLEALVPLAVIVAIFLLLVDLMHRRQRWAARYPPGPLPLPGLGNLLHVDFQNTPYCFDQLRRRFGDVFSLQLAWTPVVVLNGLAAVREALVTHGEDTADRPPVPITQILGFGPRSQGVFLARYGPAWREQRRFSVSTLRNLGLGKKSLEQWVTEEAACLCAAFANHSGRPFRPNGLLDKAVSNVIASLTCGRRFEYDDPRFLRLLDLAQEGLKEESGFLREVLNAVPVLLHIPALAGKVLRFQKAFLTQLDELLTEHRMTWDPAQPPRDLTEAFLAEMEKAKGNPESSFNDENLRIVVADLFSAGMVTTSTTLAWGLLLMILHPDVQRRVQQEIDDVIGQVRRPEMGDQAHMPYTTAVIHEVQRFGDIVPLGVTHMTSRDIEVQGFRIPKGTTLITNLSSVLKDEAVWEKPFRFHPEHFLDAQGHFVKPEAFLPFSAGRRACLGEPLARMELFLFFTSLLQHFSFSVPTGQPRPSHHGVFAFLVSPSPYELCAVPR
Sequence of Cytochrome P450 2C9 (P11712 whole entry): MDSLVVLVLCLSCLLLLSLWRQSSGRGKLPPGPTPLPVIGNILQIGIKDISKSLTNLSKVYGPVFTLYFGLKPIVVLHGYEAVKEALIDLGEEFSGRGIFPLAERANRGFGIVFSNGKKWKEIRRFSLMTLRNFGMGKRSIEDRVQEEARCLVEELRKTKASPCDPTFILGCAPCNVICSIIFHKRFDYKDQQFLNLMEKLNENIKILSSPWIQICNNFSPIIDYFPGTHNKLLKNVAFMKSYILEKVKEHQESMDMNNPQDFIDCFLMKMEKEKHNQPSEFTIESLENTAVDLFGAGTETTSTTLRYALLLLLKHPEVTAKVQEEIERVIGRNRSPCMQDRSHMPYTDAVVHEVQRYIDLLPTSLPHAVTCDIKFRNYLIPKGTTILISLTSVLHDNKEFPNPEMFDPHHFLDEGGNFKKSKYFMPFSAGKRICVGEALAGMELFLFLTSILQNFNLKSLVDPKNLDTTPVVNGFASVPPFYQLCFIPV
Sequence of Cytochrome P450 3A4 (P08684 whole entry): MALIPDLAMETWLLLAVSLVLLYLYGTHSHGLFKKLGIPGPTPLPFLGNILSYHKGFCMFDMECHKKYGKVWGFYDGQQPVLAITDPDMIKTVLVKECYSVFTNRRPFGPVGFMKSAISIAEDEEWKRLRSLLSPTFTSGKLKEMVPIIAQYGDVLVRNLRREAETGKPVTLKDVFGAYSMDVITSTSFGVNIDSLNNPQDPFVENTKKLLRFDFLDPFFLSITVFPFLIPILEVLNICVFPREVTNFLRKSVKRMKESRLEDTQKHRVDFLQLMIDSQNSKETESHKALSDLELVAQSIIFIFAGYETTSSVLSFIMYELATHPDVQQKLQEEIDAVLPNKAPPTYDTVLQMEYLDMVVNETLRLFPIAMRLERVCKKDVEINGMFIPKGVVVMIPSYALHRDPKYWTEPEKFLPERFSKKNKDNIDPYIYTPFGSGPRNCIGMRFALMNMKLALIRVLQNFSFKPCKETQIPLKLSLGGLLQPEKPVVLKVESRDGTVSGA
Sequence of Histamine H4 receptor (Mus musculus) (Q91ZY2 whole entry): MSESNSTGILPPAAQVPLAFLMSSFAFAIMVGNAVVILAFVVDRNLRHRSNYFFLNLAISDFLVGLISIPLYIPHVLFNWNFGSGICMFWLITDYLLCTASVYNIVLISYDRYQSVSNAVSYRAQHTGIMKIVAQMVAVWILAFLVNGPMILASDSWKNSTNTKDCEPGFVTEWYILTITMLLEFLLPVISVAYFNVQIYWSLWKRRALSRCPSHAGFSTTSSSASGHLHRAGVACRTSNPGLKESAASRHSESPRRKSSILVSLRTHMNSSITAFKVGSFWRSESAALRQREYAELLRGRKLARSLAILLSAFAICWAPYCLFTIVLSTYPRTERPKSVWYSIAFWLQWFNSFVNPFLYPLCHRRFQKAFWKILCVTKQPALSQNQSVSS
Sequence of Histamine H4 receptor (Rattus norvegicus) (Q91ZY1 whole entry): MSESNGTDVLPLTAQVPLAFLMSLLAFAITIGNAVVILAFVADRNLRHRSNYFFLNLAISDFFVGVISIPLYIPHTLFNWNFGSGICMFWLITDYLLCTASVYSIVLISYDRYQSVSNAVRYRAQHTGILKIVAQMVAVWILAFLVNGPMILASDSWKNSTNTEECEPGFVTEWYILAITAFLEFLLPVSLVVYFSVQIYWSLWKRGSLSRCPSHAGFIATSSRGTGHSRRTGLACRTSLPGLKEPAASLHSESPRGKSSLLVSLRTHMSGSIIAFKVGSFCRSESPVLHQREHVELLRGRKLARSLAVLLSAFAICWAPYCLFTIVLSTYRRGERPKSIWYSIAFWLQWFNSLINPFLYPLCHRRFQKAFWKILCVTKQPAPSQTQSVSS
Sequence of Histamine H4 receptor (Q9H3N8 whole entry): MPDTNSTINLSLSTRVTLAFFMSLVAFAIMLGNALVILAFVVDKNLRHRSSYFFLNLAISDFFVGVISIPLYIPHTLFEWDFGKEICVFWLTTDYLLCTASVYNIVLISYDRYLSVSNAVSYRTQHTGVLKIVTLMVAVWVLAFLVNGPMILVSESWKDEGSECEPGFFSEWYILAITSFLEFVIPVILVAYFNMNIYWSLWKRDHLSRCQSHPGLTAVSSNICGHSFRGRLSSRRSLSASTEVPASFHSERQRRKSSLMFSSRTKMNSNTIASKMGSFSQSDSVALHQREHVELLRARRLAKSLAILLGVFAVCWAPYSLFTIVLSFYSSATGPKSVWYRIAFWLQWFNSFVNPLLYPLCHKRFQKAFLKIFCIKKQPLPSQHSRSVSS

For orientation: ED50 means the dose at which the effect has come halfway, by size or by number of responders. One may read the half-life as the time in which the quantity being followed falls by half. A lower half-life goes with fast loss. What is called clearance is the rate of elimination divided by the concentration. High values mean efficient removal, low ones inefficient removal. For orientation: bioavailability means dose-corrected exposure relative to a reference, in per cent. A low value points to poor availability. Broadly, the Kp is tissue or fluid exposure divided by exposure in the circulation. `CN1CCN(c2cc(-c3ccc(C#N)cc3)nc(N)n2)CC1`: the outcome in the series on BMMC was Active. The 50% effective dose (ED50) with Mus musculus [1] amounted to 25 µmol/kg; in the series on Mus musculus [10], 66 µmol/kg; with Rattus norvegicus, 115 µmol/kg. Also, the half-life in [2] was 12 min; in series [9], 24 min. The fraction unbound in series [3] is 0.65; in series [19] it was 0.62. Moreover, the Ratio Ki in series [4] was more than 260; in series [8], 330; in [12], more than 170; in series [13], 1.2; in series [14], more than 140; in series [15], 3.5. Further, the Ratio Ki in series [16] was 120; in the series listed under Homo sapiens, 30. This molecule also had a clearance in [5] of 172 mL/min/kg. Further, the Activity result on Cytochrome P450 2C9, on Cytochrome P450 3A4 and on Cytochrome P450 2D6 was “Not Active” throughout. The molecule also yielded a bioavailability in series [6] of 31%. In addition, the Vd in series [7] stood at 7.1 L/kg. For the same molecule, the Stability is reported as 43.1 pmol/min/mg in [11], 25.9 pmol/min/mg in the series with Liver microsomes [20] and 94.5 pmol/min/mg in the series with Liver microsomes [21]. Moreover, the Kp at 0.5 h in series [17] came to 20. Moreover, the Efficacy in series [18] was determined as 64%.
In general, pKb refers to the negative decadic logarithm of the Kb, by convention in mol/L. A lower pKb goes with a high Kb. For `N#Cc1ccc(-c2cc(N3CCNCC3)nc(N)n2)cc1`, the fraction unbound in [3] is 0.93; in series [19], 0.96. Further, the Activity entry on Cytochrome P450 2C9, on Cytochrome P450 3A4 and on Cytochrome P450 2D6 was “Not Active” in each case. The Efficacy in series [22] amounted to 54%. Further, the Stability came out at 23.2 pmol/min/mg in series [11], 6.2 pmol/min/mg in the series on Liver microsomes [20] and 26.9 pmol/min/mg in the series with Liver microsomes [21]. The molecule also yielded a pKb on Histamine H4 receptor of 8.08.
